The test system of one data set is Escherichia coli 8739. Description: High resolution minimum inhibitory concentration (HRMIC) test, E. coli. In kind it is cell-based. Conditions: ppm active ingredient; M9GY medium, 30° C., 24 hours; average of multiple determinations. As for the experimental part: (§1) Biological Activity: certain compounds of the present invention were tested for activity against three microorganisms, Escherichia coli 8739 (Gram-negative bacterium) and Staphylococcus aureus 6538 (Gram-positive bacterium) and Aspergillus niger 16404.
(§2) The lowest concentration of test compound required to inhibit Staphylococcus aureus 6538, Escherichia coli 8739 and Aspergillus niger 16404 was determined by a high resolution minimum inhibitory concentration (HRMIC) test. Varying amounts of the test compounds were added to minimal salts glucose medium (see T. Maniatis, E. F. Fritsch and J. Sambrook, Molecular Cloning, p 68 (1982)) supplemented with 0.1% yeast extract (M9GY) in a 96-well microtiter plate. […] serial dilutions were performed on a Biomek™ 2000 Workstation to obtain a range of closely spaced concentrations of test compound as shown in Table 1 (based on dilutions of a 10,000 ppm active ingredient stock solution of the test compound). The plates were inoculated with cell suspension of inoculum and adjusted to provide about 10^6 CFU (colony forming units)/ml in each well. The microtiter plates were incubated at 30° C. for 24 hours and then checked (optical density at 650 nm using a microplate reader) for the presence or absence of microbial growth in each well. […] Data reported (ppm active ingredient) are the average of multiple determinations (see Table 2).

Data set [1] concerns Staphylococcus aureus 6538. Description: High resolution minimum inhibitory concentration (HRMIC) test, S. aureus. Conditions: for MIC (ppm) S. aur: ppm active ingredient, M9GY medium, 30° C., 24 hours, average of multiple determinations. The format is cell-based. As for the experimental part:
as §1, §2

The next data set concerns Aspergillus niger 16404. Description: High resolution minimum inhibitory concentration (HRMIC) test, A. niger. In kind it is cell-based. The following applies: for MIC (ppm) A. niger: ppm active ingredient, M9GY medium, 30° C., 24 hours, average of multiple determinations; for control of fungal organisms (A. niger): result in words. As for the experimental part: as §1, §2

Bounds are passed on as bounds.

Turning to `Cn1sc(Sc2nc3ccccc3s2)cc1=O` [Compound 6, [2-methyl-3-isothiazolon-5-yl]-(benzothiazol-2′-yl)sulfide, reference compound], the “MIC (ppm) E. coli” value against Escherichia coli 8739 is given as more than 1000 ppm. The “MIC (ppm) S. aur” value in data set [1] came to 5 ppm. The “MIC (ppm) A. niger” value in the data set on Aspergillus niger 16404 turned out to be 15 ppm.

Take `CCCCCCCCn1sc(Sc2cccc[n+]2[O-])c(Cl)c1=O` [Compound 5, [4-chloro-2-n-octyl-3-isothiazolon-5-yl]-(1-oxypyridin-2-yl)sulfide]: the “MIC (ppm) E. coli” value in the data set with Escherichia coli 8739 is given as 30 ppm. Also, the “MIC (ppm) S. aur” value in data set [1] is 0.9 ppm. Moreover, the “better control versus Gram-positive (S. aur) bacteria than compound 6” value in data set [1] (relative to compound 6, from Table 2 MIC) is 5 fold. In the data set on Aspergillus niger 16404, the “MIC (ppm) A. niger” value came out at 10 ppm and the “control of fungal organisms (A. niger)” value was “effective control”.

On to `Cn1sc(Sc2cccc[n+]2[O-])cc1=O` [Compound 3, [2-methyl-3-isothiazolon-5-yl]-(1-oxypyridin-2-yl)sulfide], for which the melting point (as a rule, the temperature of the solid-liquid transition) was 141 to 143 °C. Moreover, the “control of fungal organisms (A. niger)” value in the data set on Aspergillus niger 16404 is “effective control”.
